Key:
SH-SY5Y cells = experiment: Exocytosis levels and delay (fluorescent exocytosis reporter); assay type: cell-based, human; conditions: 0.01 mg/mL, 1 hour, PMA + ionomycin, vs non-treated cells
Experimental: The potential of said peptide Ac-SEQ ID NO: 8-NH2 to modulate the exocytosis of vesicles containing neurotransmitters from a neuroblastoma cell line was evaluated in vitro using SH-SY5Y cells, by fluorescence imaging using a Zeiss axiovert 200 inverted epifluorescence microscope with a 20× objective and a Xenon lamp.
SH-SY5Y cells (Sigma, USA) were cultured in T25 flasks in supplemented medium (DMEM/F12, Gibco, USA). Above 90% confluence, cells were trypsinized with 1 ml of 0.5% (v/v) Trypsin-EDTA. Next, 5 mL of said supplemented medium was added and cell concentration determined. Cells were seeded onto polyLysine-coated 12 mm-treated coverslips in 24 well-plates at 15×10^4 cells/well in supplemented medium (Gibco, USA) and incubated at regular conditions (37° C., 5% CO2). After 24 h cell seeding, cells were transfected with exocytosis reporter using Lipofectamine™ 3000 (Invitrogen, USA) following manufacturer's instructions. Reporter construct contained fusion protein made up of intraluminal-specific proteins and a pH-sensitive fluorescent protein.
For exocytosis monitorization, after 48 h of protein expression, cells were incubated with 0.01 mg/mL of Ac-SEQ ID NO: 8-NH2 peptide or 1 mg/mL of the benchmark acetyl hexapeptide-8 for 1 h at 37° C. and 5% CO2. Non-treated cells were used as basal control. […] Fluorescence imaging was done for the last 10 min of the stimulation protocol. Fluorescence signal of exocytosis reporter was monitored employing 483-512 nm excitation-filter and 525-530 nm emission-filter. […]
Non-treated cells were assayed in N=4 independent experiments with n=16 coverslips (483 cells measured), acetyl hexapeptide-8-treated cells in N=3 independent experiments with n=10 coverslips (328 cells measured) and Ac-SEQ ID NO: 8-NH2-treated cells in N=3 independent experiments with n=8 coverslips (240 cells measured). Cells were selected to individually monitor fluorescence intensity and time-course. Fluorescence peak evoked by ionomycin addition was used to quantify exocytosis by calculating the Area under the curve (AUC) using GraphPad software. Two parameters were defined and analyzed: • Exocytosis levels: For individual cells, total peak area was obtained from AUC analysis and was normalized by the baseline that was defined as fluorescence intensity 3-cycles before lonomycin injection. • Exocytosis delay: For individual cells, response time (min) was obtained from AUC analysis as time frame between lonomycin injection (Y) and initiation of peak (firstX).
Fluorescence values were further normalized as percentage change to non-treated cells on each experiment as: (exocytosis level of treated cells/exocytosis levels non-treated cells)×100 and (response time of treated cells/response time of non-treated cells)×100. […]

collagen type I = experiment: Collagen type I production by fibroblasts (competitive ELISA); assay type: cell-based, human; conditions: vs non-treated cells
Experimental: The potential of said peptide Ac-SEQ ID NO: 8-NH2 to modulate the production of collagen type I as a potential improver of skin firming was evaluated in vitro using human skin fibroblasts.
Cell were seeded in 96-well plates at 1×10^4 cells/well and maintained for 24 h at standard culture conditions (37° C., 95% humidity, 5% CO2). After 24 h incubation, medium was removed and new medium containing the peptide Ac-SEQ ID NO: 8-NH2 at 0.01, 0.05 or 0.1 mg/mL was added to the wells concentration. Treatment lasted 24 hours or 48 hours and at the end of the assay cell culture media were collected. Cells treated only with culture medium were used as basal control (non-treated cells).
After 24 and 48 hours of treatment the amount of collagen type I produced and released by the cells (ex-novo collagen type I synthesis) was measured in cell culture medium by means of ELISA assay. The results of the test item were compared to basal control condition (non-treated cells). The treatments were performed in triplicate in three different experimental sessions.
The determination of collagen type I synthesis was carried out by means of a competitive ELISA method. Samples were added to enzyme wells which were pre-coated with antibodies, then the recognition antigen labeled with Horseradish peroxidase (HRP) was added; after being incubated 1 hour at 37° C., both compete with solid phase antigen and form immune complex. After washing with phosphate buffer solution, the combined HRP catalyzes Tetramethylbenzidine (TMB) into blue, and turns into yellow by the action of acid; it has an absorption peak under 450 nm wavelength and its absorbance is negatively correlated with antigen density of sample. The plates were read by microplate reader.
The quantitative determination uses a calibration curve made-up of known and growing concentrations of standard collagen type 1. The results are expressed as collagen type I concentration (μg/ml) in 50 μL cell culture medium.
Three trials were performed for each determination in three different experimental sessions. The % variation in collagen type I content between negative controls and samples was calculated and a direct index of the efficacy of the peptide to increase collagen I synthesis was obtained.

Ac-His-Ala-Leu-Arg-Phe-Trp-NH2 [Ac-SEQ ID NO: 8-NH2]
change of exocytosis levels (SH-SY5Y cells): −14%
exocytosis response time delay (SH-SY5Y cells): 24%
increase of collagen type I production (collagen type I; 0.01 mg/mL, 24 h): 9%
increase of collagen type I production (collagen type I; 0.01 mg/mL, 48 h): 16%
increase of collagen type I production (collagen type I; 0.05 mg/mL, 24 h): 31%
increase of collagen type I production (collagen type I; 0.05 mg/mL, 48 h): 29.5%
increase of collagen type I production (collagen type I; 0.1 mg/mL, 24 h): 37.5%
increase of collagen type I production (collagen type I; 0.1 mg/mL, 48 h): 56.5%

Reference: patent publication US11634458B2, “Peptides and compositions for use in cosmetics and medicine” (LIPOTRUE, S.L., priority 2018, dated 2023)
